From patent US10428080B2, “TBK/IKK inhibitor compounds and uses thereof” (Merck Patent GmbH, priority 2015, dated 2019)
Structures can show the parent of a compound that is named as a salt.

Legend:
TBK1 = biological target: T1, TBK1 (Homo sapiens, UniProt Q9UHD2); assay: TBK Biochemical Assay; settings: read-out: TBK1 IC50
T1 sequence (Q9UHD2 1-729): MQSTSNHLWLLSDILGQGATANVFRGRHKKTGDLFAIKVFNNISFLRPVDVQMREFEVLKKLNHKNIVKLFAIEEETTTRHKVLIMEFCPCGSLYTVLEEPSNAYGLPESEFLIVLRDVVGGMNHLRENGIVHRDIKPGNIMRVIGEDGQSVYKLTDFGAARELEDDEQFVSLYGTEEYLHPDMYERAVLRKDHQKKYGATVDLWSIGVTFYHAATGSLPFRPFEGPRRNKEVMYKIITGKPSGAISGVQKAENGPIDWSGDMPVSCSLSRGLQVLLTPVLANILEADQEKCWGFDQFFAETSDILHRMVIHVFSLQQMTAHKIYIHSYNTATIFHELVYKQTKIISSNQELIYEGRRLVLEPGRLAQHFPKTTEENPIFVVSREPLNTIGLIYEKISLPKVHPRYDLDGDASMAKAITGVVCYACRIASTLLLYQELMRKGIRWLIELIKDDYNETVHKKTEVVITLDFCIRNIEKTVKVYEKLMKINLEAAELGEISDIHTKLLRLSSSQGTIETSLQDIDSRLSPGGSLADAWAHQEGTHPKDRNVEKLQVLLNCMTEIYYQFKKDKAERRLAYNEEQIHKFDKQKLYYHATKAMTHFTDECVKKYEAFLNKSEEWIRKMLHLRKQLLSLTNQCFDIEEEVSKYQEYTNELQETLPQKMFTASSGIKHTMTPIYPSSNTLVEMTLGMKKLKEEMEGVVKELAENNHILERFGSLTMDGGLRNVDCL
Procedure: Example 482: TBK Biochemical Assay
(§1) Test compounds were transferred into Labcyte polypropylene 384 well plates (P055-25) and diluted to 3 mM using DMSO. 3 mM test compounds were dispensed using Labcyte ECHO dose response module into Greiner 784075 plates (columns 3-12 and 13-22, 10 point 1:4) so that high concentration was 30 uM final. 100 uM of a reference compound (1 uM final high concentration). Backfilling was performed if necessary so that all wells contain 1% DMSO final: […]
(§2) add 75 nl DMSO/well into columns 1, 2 and 24 using Labcyte Echo. add 75 nl 1.0 mM staurosporine/well into column 23 using Labcyte Echo ([…]) add 4.5 ul enzyme/well using multidrop dispenser add 3 ul substrate/well using multidrop dispenser incubate at 25° C. in Heidolph incubator for 90 min. add 7.5 ul 2× stop buffer using multidrop dispenser read on labchip ez reader II using TBK1.job
(§3) Raw data files were opened in the Caliper LabChip Reviewer program (Version 3.0.265.0 SP2) and peak assignments were adjusted to reflect “substrate first” with the software's post-run analysis options. A spline-fit baseline was applied using the software's analysis algorithm.

IKKε = biological target: T2, IKKε (Homo sapiens, UniProt Q14164); assay: IKKe Biochemical Assay; settings: read-out: IKKε IC50
T2 sequence (Q14164 1-716): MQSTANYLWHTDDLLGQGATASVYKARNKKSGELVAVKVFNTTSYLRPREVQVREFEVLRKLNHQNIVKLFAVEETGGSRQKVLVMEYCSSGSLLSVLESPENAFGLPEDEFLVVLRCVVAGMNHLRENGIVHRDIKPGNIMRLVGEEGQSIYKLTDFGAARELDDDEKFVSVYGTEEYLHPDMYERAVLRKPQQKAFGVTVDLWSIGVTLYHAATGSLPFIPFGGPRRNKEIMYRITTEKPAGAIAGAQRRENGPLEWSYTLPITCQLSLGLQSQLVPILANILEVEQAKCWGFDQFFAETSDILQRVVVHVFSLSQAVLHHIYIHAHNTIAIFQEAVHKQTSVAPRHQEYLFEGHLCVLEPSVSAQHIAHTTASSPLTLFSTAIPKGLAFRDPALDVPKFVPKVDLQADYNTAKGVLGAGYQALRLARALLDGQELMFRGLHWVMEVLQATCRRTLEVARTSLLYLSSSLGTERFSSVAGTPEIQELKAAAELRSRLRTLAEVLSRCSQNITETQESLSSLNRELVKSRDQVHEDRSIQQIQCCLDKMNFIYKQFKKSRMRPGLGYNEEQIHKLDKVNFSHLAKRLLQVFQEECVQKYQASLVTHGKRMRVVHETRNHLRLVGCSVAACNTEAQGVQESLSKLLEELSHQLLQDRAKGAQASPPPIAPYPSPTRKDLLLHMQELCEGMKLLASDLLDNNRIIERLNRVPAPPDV
Procedure: as §1, with “(Greiner” for “Greiner”
as §2, with “C.” for “C. in Heidolph incubator”, “buffer” for “buffer using multidrop dispenser”, “IKKε. job” for “TBK1.job”
as §3

Row | SMILES | IC50 (TBK1) [nM] | IC50 (IKKε) [nM]
1 | COc1cc(C(=O)N2C3COCC2CC(O)C3)ccc1-c1cc2nccc(-c3ccc(OC4CCOCC4)c(C#N)c3)c2o1 (stereo not drawn) [Compound 66, 5-{2-[4-(7-Hydroxy-3-oxa-9-aza-bicyclo[3.3.1]nonane-9-carbonyl)-2-methoxy-phenyl]-furo[3,2-b]pyridin-7-yl}-2-(tetrahydro-pyran-4-yloxy)-benzonitrile] | < 100 | < 100
2 | CCN(CC)C(=O)c1ccc(-c2cc3nccc(-c4ccc(OC5CCOCC5)c(C#N)c4)c3o2)c(OC)c1 [Compound 256, 4-(7-(3-cyano-4-(tetrahydro-2H-pyran-4-yloxy)phenyl)furo[3,2-b]pyridin-2-yl)-N,N-diethyl-3-methoxybenzamide hydrochloride] | < 100 | < 100
3 | COc1cc(C(=O)N(C)C2CCNC2)ccc1-c1cc2nccc(-c3ccc(OC4CCOCC4)c(C#N)c3)c2o1 (stereo not drawn) [Compound 56, 4-{7-[3-Cyano-4-(tetrahydro-pyran-4-yloxy)-phenyl]-furo[3,2-b]pyridin-2-yl}-3-methoxy-N-methyl-N-pyrrolidin-3-yl-benzamide] | < 100 | < 100
4 | COc1cc(C(=O)NC2CCN(C(=O)OC(C)(C)C)C2)ccc1-c1cc2nccc(-c3ccc(NC4CCOCC4)c(C#N)c3)c2o1 (stereo not drawn) [Compound 147, 3-(4-{7-[3-Cyano-4-(tetrahydro-pyran-4-ylamino)-phenyl]-furo[3,2-b]pyridin-2-yl}-3-methoxy-benzoylamino)-pyrrolidine-1-carboxylic acid tert-butyl ester] | < 100 | < 100
5 | CN(C)C(=O)c1ccc(-c2cc3nccc(-c4ccc(N5CC[C@H](F)C5)c(C#N)c4)c3o2)nc1 (single isomer, unassigned) [Compound 273, 6-(7-(3-cyano-4-(3-fluoropyrrolidin-1-yl)phenyl)furo[3,2-b]pyridin-2-yl)-N,N-dimethylnicotinamide hydrochloride] | < 100 | < 100
6 | COc1cc(C(=O)N2CCC2)ccc1-c1cc2nccc(-c3ccc(OC4CCOCC4)c(C#N)c3)c2o1 [Compound 44, 5-{2-[4-(Azetidine-1-carbonyl)-2-methoxy-phenyl]-furo[3,2-b]pyridin-7-yl}-2-(tetrahydro-pyran-4-yloxy)-benzonitrile] | < 100 | < 100
7 | CC(C)(C)OC(=O)Nc1ccc(-c2cc3nccc(-c4ccc(OC5CCOCC5)c(C#N)c4)c3o2)cc1 [Compound 183] | 1000 to 5000 | 100 to 1000
8 | COc1cc(C(=O)N2C[C@H]3C[C@@H](O)C[C@H]3C2)ccc1-c1cc2nccc(-c3ccc(NC4CCOCC4)c(C#N)c3)c2o1 [Compound 81, 5-{2-[4-((3aR,5R,6aS)-5-Hydroxy-hexahydro-cyclopenta[c]pyrrole-2-carbonyl)-2-methoxy-phenyl]-furo[3,2-b]pyridin-7-yl}-2-(tetrahydro-pyran-4-ylamino)-benzonitrile] | < 100 | < 100
9 | COc1cc(C(=O)N[C@@H]2CCNC[C@@H]2F)ccc1-c1cc2nccc(-c3cc(F)c(NC4CCOCC4)c(C#N)c3)c2o1 (single isomer, unassigned) [Compound 254, 4-(7-(3-cyano-5-fluoro-4-(tetrahydro-2H-pyran-4-ylamino)phenyl)furo[3,2-b]pyridin-2-yl)-N-(3-fluoropiperidin-4-yl)-3-methoxybenzamide hydrochloride] | 100 to 1000 | < 100
10 | N#Cc1cc(-c2ccnc3cc(-c4ccc(C(=O)O)cc4)oc23)ccc1Oc1ccccc1F [Compound 169, 4-{7-[3-Cyano-4-(2-fluoro-phenoxy)-phenyl]-furo[3,2-b]pyridin-2-yl}-benzoic acid] | 100 to 1000 | 100 to 1000
11 | COc1cc(C(=O)N(C)C)ccc1-c1cc2nccc(-c3ccc(OC4CCN(C(C)=O)C4)c(C#N)c3)c2o1 (stereo not drawn) [Compound 144, 4-{7-[4-(1-Acetyl-pyrrolidin-3-yloxy)-3-cyano-phenyl]-furo[3,2-b]pyridin-2-yl}-3-methoxy-N,N-dimethyl-benzamide] | < 100 | < 100
12 | CN(C)C(=O)c1ccc(-c2cc3nccc(-c4ccc(NC5CC(C)(C)OC(C)(C)C5)c(C#N)c4)c3o2)cc1 [Compound 218, 4-(7-(3-cyano-4-(2,2,6,6-tetramethyl-tetrahydro-2H-pyran-4-ylamino)phenyl)furo[3,2-b]pyridin-2-yl)-N,N-dimethylbenzamide] | 1000 to 5000 | 1000 to 5000

Next, values leading:

Row | IC50 (TBK1) [nM] | IC50 (IKKε) [nM] | SMILES
13 | 100 to 1000 | 100 to 1000 | COc1cc(C(=O)N(C)CCO)cnc1-c1cc2ncc(OC)c(-c3ccc(OC4CCOCC4)c(C#N)c3)c2o1 [Compound 343, 6-[7-[3-cyano-4-(oxan-4-yloxy)phenyl]-6-methoxyfuro[3,2-b]pyridin-2-yl]-N-(2-hydroxyethyl)-5-methoxy-N-methylpyridine-3-carboxamide]
14 | > 5000 | > 5000 | COc1cc(C(=O)N(C)CCO)cnc1-c1cc2ncc(C3CC3)c(-c3ccc(OC4CCOCC4)c(C#N)c3)c2o1 [Compound 341, 6-[7-[3-cyano-4-(oxan-4-yloxy)phenyl]-6-cyclopropylfuro[3,2-b]pyridin-2-yl]-N-(2-hydroxyethyl)-5-methoxy-N-methylpyridine-3-carboxamide hydrochloride]
15 | 100 to 1000 | 100 to 1000 | COc1cc(-c2cc3nccc(-c4ccc(NC5CCOCC5)c(C#N)c4)c3o2)ncc1C(=O)N(C)C [Compound 392, 6-(7-[3-cyano-4-[(oxan-4-yl)amino]phenyl]furo[3,2-b]pyridin-2-yl)-4-methoxy-N,N-dimethylpyridine-3-carboxamide]
16 | 1000 to 5000 | 1000 to 5000 | COc1cc(C(=O)N(C)C)cnc1-c1cc2ncc(C)c(-c3ccc(NC4CCOCC4)c(C#N)c3)c2o1 [Compound 319, 6-(7-(3-cyano-4-(tetrahydro-2H-pyran-4-ylamino)phenyl)-6-methylfuro[3,2-b]pyridin-2-yl)-5-methoxy-N,N-dimethylnicotinamide]
17 | 100 to 1000 | 100 to 1000 | COc1cc(C(=O)N(C)C)cnc1-c1cc2nccc(-c3ncc(OC4CCOCC4)c(C#N)n3)c2o1 [Compound 396, 6-[7-[4-cyano-5-(oxan-4-yloxy)pyrimidin-2-yl]furo[3,2-b]pyridin-2-yl]-5-methoxy-N,N-dimethylpyridine-3-carboxamide]
18 | 1000 to 5000 | 1000 to 5000 | COc1cc(C(=O)N(C)C)cnc1-c1cc2ncc(Cl)c(-c3ccc(OC4CCOCC4)c(C#N)c3)c2o1 [Compound 336, 6-[6-chloro-7-[3-cyano-4-(oxan-4-yloxy)phenyl]furo[3,2-b]pyridin-2-yl]-5-methoxy-N,N-dimethylpyridine-3-carboxamide hydrochloride]
